Earlier results on eight molecules are cited in patent US20240197806A1, “EBELIN LACTONE OR BACOGENIN A1 ENRICHED COMPOSITION AND METHOD OF PREPARATION THEREOF” (priority 2022, published 2024).

One may read the Ki as the dissociation constant of the complex between target and ligand, obtained from inhibition or displacement.

For series [1] the following is noted: Ramasamy et al., PLoS One 2015.
For series [2] the following is noted: Ramasamy et al., PLoS One 2015. The source holds these as a separate data set.
The target of series [3] is 5-HT2A receptors (Homo sapiens, UniProt P28223). The note with it: read-out: Ki, binding to the 5-HT2A receptors.
Sequence of 5-HT2A receptors (P28223 whole entry): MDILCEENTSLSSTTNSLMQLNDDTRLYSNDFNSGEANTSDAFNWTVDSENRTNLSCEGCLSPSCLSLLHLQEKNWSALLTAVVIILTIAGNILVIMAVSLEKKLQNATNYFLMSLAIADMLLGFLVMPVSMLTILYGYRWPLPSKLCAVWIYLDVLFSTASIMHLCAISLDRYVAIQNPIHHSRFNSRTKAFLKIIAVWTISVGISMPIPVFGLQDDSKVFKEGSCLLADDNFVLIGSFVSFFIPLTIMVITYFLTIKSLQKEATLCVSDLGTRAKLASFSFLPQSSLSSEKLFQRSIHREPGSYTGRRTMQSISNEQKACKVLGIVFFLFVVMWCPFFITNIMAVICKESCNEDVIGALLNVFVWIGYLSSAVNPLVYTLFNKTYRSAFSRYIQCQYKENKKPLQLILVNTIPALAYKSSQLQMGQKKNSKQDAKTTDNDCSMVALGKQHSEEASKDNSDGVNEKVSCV

As to `CC(C)=C[C@H]1C[C@](C)(O)[C@@H]2[C@H]3CC[C@@H]4[C@@]5(C)CC[C@H](O[C@@H]6OC[C@H](O)[C@H](O[C@@H]7O[C@H](CO)[C@@H](O)[C@H](O)[C@H]7O)[C@H]6O[C@@H]6O[C@@H](CO)[C@H](O)[C@H]6O)C(C)(C)[C@@H]5CC[C@@]4(C)[C@@]34CO[C@@]2(C4)O1` [bacopaside X], the intestinal absorption entry in series [1] is “poor”. Moreover, the “ability to cross the blood brain barrier / blood brain barrier penetration” value in series [2] is on record as “not able to cross”. Consider bacopaside II, for which, in series [1], the intestinal absorption entry is recorded as “poor”. For the same molecule, in series [2], the “ability to cross the blood brain barrier / blood brain barrier penetration” value is reported as “not able to cross”. For the molecule `CC(C)=CC1C[C@](C)(O)C2C3CCC4[C@@]5(C)CC[C@H](O)C(C)(C)C5CC[C@@]4(C)[C@]34CO[C@]2(C4)O1` (stereo partly drawn) [jujubogenin], the intestinal absorption entry in series [1] is “good”. The “ability to cross the blood brain barrier / blood brain barrier penetration” value in series [2] was “able to cross”.

Regarding `CC(C)=CC1COC23CC4(CO2)C(CCC2C5(C)CCC(O)C(C)(C)C5CCC24C)C3C1(C)O` (stereo not drawn) [pseudojujubogenin], the intestinal absorption result in series [1] is “good”. In addition, the “ability to cross the blood brain barrier / blood brain barrier penetration” value in series [2] is recorded as “able to cross”. With `CC1=CC(C)(C)O[C@@]1(C)C1C(=O)C[C@]2(CO)C1CCC1[C@@]3(C)CC[C@H](O)C(C)(C)C3CC[C@]12C` (stereo partly drawn) [bacogenin A1], the intestinal absorption result in series [1] is “same absorption parameters as jujubogenin and pseudojujubogenin”. Regarding `CC(C)=C[C@@H]1CO[C@]23C[C@]4(CO2)[C@H](CC[C@@H]2[C@@]5(C)CC[C@H](O[C@@H]6OC[C@H](O)[C@H](O[C@@H]7O[C@H](CO)[C@@H](O)[C@H](O)[C@H]7O)[C@H]6O[C@@H]6O[C@@H](CO)[C@H](O)[C@H]6O)C(C)(C)[C@@H]5CC[C@]24C)[C@H]3[C@@]1(C)O` [bacopasaponin C], in series [1], the intestinal absorption entry is on record as “poor”. Also, the “ability to cross the blood brain barrier / blood brain barrier penetration” value in series [2] is “not able to cross”. On to `CC(C)=C[C@H]1C[C@](C)(O)[C@H]2[C@H]3CC[C@@H]4[C@@]5(C)CC[C@H](O[C@@H]6O[C@H](CO)[C@@H](O)[C@H](O[C@@H]7O[C@H](CO)[C@@H](O)[C@H](O)[C@H]7O)[C@H]6O[C@@H]6O[C@@H](CO)[C@H](O)[C@H]6O)C(C)(C)[C@@H]5CC[C@@]4(C)[C@@]34CO[C@@]2(C4)O1` [bacoside A3], for which the intestinal absorption result in series [1] is on record as “poor”. In addition, the “ability to cross the blood brain barrier / blood brain barrier penetration” value in series [2] is listed as “not able to cross”. As to `CC(C)=C/C=C/C(C)=C/C1CCC2[C@@]3(C)CC[C@H](O)C(C)(C)C3CC[C@@]2(C)[C@@]12COC(=O)C2` (stereo partly drawn) [ebelin lactone], the Ki in series [3] is 4.21 µM. In addition, in series [2], the “ability to cross the blood brain barrier / blood brain barrier penetration” value is reported as “very high”.
